Legend:
Estrogen receptor beta = Estrogen receptor beta (Homo sapiens, UniProt Q92731); details: sf9; also: in other assays of this panel Not Active means under 50% inhibition at 10 µM
Interstitial collagenase = target: T1, Interstitial collagenase (Homo sapiens, UniProt P03956); assay: biochemical; assay type: tissue-based, Rheumatoid synovial fibroblasts;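 also: MMP-1 enzyme inhibition assay using a peptide substrate; in other assays of this panel Not Active means under 50% inhibition at 10 µM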
T1 sequence (P03956 whole entry): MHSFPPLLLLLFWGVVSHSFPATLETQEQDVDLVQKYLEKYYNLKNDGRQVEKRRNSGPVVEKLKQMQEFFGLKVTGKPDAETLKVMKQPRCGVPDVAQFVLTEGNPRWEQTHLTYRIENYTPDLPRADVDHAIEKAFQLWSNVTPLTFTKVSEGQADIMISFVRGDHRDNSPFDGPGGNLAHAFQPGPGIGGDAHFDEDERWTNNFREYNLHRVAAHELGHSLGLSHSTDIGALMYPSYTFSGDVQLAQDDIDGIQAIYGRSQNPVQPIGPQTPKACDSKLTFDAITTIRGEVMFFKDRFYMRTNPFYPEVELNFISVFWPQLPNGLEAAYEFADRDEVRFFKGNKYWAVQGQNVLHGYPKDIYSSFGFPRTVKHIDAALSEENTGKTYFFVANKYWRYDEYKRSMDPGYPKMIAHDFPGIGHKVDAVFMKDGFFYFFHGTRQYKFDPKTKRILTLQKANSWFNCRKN

Cytochrome P450 1A2 = target: T2, Cytochrome P450 1A2 (Homo sapiens, UniProt P05177); details: bti-tn-5b1-4; also: in other assays of this panel Not Active means under 50% inhibition at 10 µM
T2 sequence (P05177 whole entry): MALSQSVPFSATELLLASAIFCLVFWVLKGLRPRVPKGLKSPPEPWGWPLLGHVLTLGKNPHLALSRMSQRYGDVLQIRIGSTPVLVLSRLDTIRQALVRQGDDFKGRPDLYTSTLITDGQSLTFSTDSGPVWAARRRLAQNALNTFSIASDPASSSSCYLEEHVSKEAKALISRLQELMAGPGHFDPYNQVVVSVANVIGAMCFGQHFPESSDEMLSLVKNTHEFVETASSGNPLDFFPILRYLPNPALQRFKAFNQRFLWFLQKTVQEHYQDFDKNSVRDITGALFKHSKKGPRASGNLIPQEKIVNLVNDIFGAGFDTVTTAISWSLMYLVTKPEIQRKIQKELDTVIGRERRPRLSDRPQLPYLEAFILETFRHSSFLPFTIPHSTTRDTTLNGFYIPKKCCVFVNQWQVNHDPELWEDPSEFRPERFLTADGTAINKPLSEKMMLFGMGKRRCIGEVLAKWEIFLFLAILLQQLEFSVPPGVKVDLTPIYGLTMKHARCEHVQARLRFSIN

[1] = target: Receptor tyrosine-protein kinase erbB-2 (Homo sapiens, UniProt P04626); assay: biochemical; assay type: cell-based, Insect cells; details: insect cells;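 also: inhibition of HER2 kinase enzyme activity, measured with Poly(Glu:Tyr) as the phosphorylation substrate; in other assays of this panel Not Active means under 50% inhibition at 10 µM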
[2] = DRUGMATRIX: Glutamate, Kainate radioligand binding (ligand: [3H] Kainic acid); assay type: cell membranes, Rattus norvegicus, Wistar, Brain, Membrane; details: Not Active = under 50% inhibition at 10 µM
[3] = DRUGMATRIX: GABAA, Muscimol, Central radioligand binding (ligand: [3H] Muscimol); assay type: cell membranes, Rattus norvegicus, Wistar, Brain, Membrane; details: Not Active = under 50% inhibition at 10 µM
[4] = target: T3, 3-hydroxy-3-methylglutaryl-coenzyme A reductase (Homo sapiens, UniProt P04035); design: species or system Escherichia coli
T3 sequence (P04035 whole entry): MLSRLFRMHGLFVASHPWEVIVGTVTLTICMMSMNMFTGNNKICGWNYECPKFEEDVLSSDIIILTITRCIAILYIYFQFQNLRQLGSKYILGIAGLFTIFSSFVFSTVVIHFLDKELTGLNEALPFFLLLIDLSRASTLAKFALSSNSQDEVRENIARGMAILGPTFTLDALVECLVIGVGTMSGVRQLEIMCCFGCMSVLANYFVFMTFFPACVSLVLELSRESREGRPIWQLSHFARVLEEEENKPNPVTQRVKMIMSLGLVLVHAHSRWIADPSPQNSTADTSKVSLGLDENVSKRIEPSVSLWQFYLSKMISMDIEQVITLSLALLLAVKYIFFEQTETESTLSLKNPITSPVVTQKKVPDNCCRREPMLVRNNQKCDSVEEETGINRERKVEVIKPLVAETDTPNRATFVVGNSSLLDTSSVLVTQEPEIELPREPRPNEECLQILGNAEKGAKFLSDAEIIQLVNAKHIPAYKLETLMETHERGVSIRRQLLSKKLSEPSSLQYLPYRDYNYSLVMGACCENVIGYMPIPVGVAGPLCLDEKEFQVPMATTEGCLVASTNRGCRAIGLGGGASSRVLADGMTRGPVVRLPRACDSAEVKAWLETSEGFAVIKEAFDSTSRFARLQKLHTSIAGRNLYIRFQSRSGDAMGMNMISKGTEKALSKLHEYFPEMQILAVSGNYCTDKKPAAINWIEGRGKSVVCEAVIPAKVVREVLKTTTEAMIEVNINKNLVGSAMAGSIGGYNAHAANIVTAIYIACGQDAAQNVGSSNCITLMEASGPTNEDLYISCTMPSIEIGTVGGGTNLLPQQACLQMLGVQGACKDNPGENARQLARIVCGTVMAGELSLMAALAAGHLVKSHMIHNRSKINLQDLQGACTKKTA

[5] = DRUGMATRIX: Calcium Channel Type L, Dihydropyridine radioligand binding (ligand: [3H] Nitrendipine); assay type: cell membranes, Rattus norvegicus, Wistar, Cerebral cortex, Membrane; details: Not Active = under 50% inhibition at 10 µM

Receptor tyrosine-protein kinase erbB-2, sequence (P04626 whole entry): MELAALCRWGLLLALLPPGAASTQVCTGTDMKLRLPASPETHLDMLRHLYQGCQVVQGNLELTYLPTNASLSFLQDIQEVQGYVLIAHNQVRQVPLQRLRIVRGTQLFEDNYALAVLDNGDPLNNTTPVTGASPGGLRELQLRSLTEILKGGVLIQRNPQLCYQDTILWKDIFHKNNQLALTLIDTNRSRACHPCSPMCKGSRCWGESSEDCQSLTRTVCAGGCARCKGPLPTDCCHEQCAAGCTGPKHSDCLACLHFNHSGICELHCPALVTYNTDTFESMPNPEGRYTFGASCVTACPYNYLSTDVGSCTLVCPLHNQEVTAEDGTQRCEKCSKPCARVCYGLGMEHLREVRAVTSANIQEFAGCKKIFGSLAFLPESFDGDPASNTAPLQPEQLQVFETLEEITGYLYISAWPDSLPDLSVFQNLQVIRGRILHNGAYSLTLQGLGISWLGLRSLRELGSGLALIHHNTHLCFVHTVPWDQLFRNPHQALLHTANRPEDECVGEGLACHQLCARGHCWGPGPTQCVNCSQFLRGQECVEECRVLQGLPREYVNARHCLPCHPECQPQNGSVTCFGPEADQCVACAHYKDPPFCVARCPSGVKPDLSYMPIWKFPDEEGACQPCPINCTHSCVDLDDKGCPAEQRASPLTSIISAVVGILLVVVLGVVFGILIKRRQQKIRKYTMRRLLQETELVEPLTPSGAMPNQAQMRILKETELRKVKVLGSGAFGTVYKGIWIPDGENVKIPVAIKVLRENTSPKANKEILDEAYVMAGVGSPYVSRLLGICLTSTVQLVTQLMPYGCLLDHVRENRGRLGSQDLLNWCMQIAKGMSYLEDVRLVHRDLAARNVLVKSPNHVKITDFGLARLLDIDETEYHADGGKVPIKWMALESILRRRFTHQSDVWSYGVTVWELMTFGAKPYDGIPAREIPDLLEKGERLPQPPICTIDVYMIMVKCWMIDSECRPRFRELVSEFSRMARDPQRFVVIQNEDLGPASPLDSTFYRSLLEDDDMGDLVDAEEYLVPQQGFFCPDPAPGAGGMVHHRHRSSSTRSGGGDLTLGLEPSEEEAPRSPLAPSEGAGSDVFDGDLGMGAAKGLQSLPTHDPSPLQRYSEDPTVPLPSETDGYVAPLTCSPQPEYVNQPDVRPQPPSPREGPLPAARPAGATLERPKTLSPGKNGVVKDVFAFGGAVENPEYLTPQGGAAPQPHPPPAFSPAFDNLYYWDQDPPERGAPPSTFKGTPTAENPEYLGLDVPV
Estrogen receptor beta, sequence (Q92731 whole entry): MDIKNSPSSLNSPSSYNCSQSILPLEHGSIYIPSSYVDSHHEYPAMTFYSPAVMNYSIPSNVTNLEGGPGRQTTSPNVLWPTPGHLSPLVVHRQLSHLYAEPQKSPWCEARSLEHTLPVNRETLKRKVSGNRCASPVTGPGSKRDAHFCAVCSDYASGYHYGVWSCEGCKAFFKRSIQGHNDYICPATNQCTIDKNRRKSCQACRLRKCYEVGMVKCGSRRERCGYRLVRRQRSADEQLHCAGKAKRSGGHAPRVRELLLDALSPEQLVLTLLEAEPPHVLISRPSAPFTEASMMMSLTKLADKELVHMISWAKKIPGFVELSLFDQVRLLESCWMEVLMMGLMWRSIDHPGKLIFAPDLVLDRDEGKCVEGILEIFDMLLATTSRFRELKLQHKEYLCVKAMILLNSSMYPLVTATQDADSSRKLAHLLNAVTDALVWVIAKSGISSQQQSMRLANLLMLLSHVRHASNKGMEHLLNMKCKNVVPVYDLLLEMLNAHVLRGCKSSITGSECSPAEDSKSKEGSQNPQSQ

COc1ccc(C2C(=O)c3ccccc3C2=O)cc1 [ANISINDIONE]
Not Active: IC50 (Estrogen receptor beta) | IC50 (Interstitial collagenase) | IC50 (Cytochrome P450 1A2) | Ki (Cytochrome P450 1A2) | IC50 [1] | IC50 [2] | Ki [2] | IC50 [3] | Ki [3] | IC50 [4] | IC50 [5] | Ki [5]

O=C1O[C@H]([C@@H](O)CO)C(O)=C1O [ASCORBIC ACID]
Not Active: IC50 (Estrogen receptor beta) | IC50 (Interstitial collagenase) | IC50 (Cytochrome P450 1A2) | Ki (Cytochrome P450 1A2) | IC50 [1] | IC50 [2] | Ki [2] | IC50 [3] | Ki [3] | IC50 [4] | IC50 [5] | Ki [5]

CC(C(=O)O)c1ccc2oc(-c3ccc(Cl)cc3)nc2c1 (configuration not stated) [BENOXAPROFEN]
Not Active: IC50 (Estrogen receptor beta) | IC50 (Interstitial collagenase) | IC50 (Cytochrome P450 1A2) | Ki (Cytochrome P450 1A2) | IC50 [1] | IC50 [2] | Ki [2] | IC50 [3] | Ki [3] | IC50 [4] | IC50 [5] | Ki [5]

CC(=O)Oc1ccc(C(c2ccc(OC(C)=O)cc2)c2ccccn2)cc1 [BISACODYL]
Not Active: IC50 (Estrogen receptor beta) | IC50 (Interstitial collagenase) | IC50 (Cytochrome P450 1A2) | Ki (Cytochrome P450 1A2) | IC50 [1] | IC50 [2] | Ki [2] | IC50 [3] | Ki [3] | IC50 [4] | IC50 [5] | Ki [5]

Cc1cc2c(OCC(CNC(C)(C)C)OC(=O)c3ccccc3)cccc2[nH]1 (configuration not stated) [BOPINDOLOL]
Not Active: IC50 (Estrogen receptor beta) | IC50 (Interstitial collagenase) | IC50 (Cytochrome P450 1A2) | Ki (Cytochrome P450 1A2) | IC50 [1] | IC50 [2] | Ki [2] | IC50 [3] | Ki [3] | IC50 [4] | IC50 [5] | Ki [5]

Brc1c(NC2=NCCN2)ccc2nccnc12 [BRIMONIDINE]
Not Active: IC50 (Estrogen receptor beta) | IC50 (Interstitial collagenase) | IC50 (Cytochrome P450 1A2) | Ki (Cytochrome P450 1A2) | IC50 [1] | IC50 [2] | Ki [2] | IC50 [3] | Ki [3] | IC50 [4] | IC50 [5] | Ki [5]

CN(C)[C@@H]1C(O)=C(C(N)=O)C(=O)[C@@]2(O)C(O)=C3C(=O)c4c(O)ccc(Cl)c4[C@@](C)(O)[C@H]3C[C@@H]12 [CHLORTETRACYCLINE]
Not Active: IC50 (Estrogen receptor beta) | IC50 (Interstitial collagenase) | IC50 (Cytochrome P450 1A2) | Ki (Cytochrome P450 1A2) | IC50 [1] | IC50 [2] | Ki [2] | IC50 [3] | Ki [3] | IC50 [4] | IC50 [5] | Ki [5]

CN/C(=N\CCSCc1nc[nH]c1C)NC#N [CIMETIDINE]
Not Active: IC50 (Estrogen receptor beta) | IC50 (Interstitial collagenase) | IC50 (Cytochrome P450 1A2) | Ki (Cytochrome P450 1A2) | IC50 [1] | IC50 [2] | Ki [2] | IC50 [3] | Ki [3] | IC50 [4] | IC50 [5] | Ki [5]

CCC(=O)O[C@]1(C(=O)CCl)[C@@H](C)C[C@H]2[C@@H]3CCC4=CC(=O)C=C[C@]4(C)[C@@]3(F)[C@@H](O)C[C@@]21C [CLOBETASOL PROPIONATE]
Not Active: IC50 (Estrogen receptor beta) | IC50 (Interstitial collagenase) | IC50 (Cytochrome P450 1A2) | Ki (Cytochrome P450 1A2) | IC50 [1] | IC50 [2] | Ki [2] | IC50 [3] | Ki [3] | IC50 [4] | IC50 [5] | Ki [5]

O=C1CN=C(c2ccccc2Cl)c2cc([N+](=O)[O-])ccc2N1 [CLONAZEPAM]
Not Active: IC50 (Estrogen receptor beta) | IC50 (Interstitial collagenase) | IC50 (Cytochrome P450 1A2) | Ki (Cytochrome P450 1A2) | IC50 [1] | IC50 [2] | Ki [2] | IC50 [3] | Ki [3] | IC50 [4] | IC50 [5] | Ki [5]

C[C@@H]1C[C@H]2[C@@H]3CCC4=CC(=O)C=C[C@]4(C)[C@@]3(F)[C@@H](O)C[C@]2(C)[C@H]1C(=O)CO [DESOXIMETASONE]
Not Active: IC50 (Estrogen receptor beta) | IC50 (Interstitial collagenase) | IC50 (Cytochrome P450 1A2) | Ki (Cytochrome P450 1A2) | IC50 [1] | IC50 [2] | Ki [2] | IC50 [3] | Ki [3] | IC50 [4] | IC50 [5] | Ki [5]

C[C@@H]1CC[C@@]2(OC1)O[C@H]1[C@@H](O)[C@H]3[C@@H]4CC[C@H]5C[C@@H](O[C@@H]6O[C@H](CO)[C@H](O[C@@H]7O[C@H](CO)C(O)[C@H](O[C@@H]8OC[C@@H](O)[C@H](O)[C@H]8O)[C@H]7O[C@@H]7O[C@H](CO)[C@H](O)[C@H](O[C@@H]8O[C@H](CO)[C@@H](O)[C@H](O)[C@H]8O)[C@H]7O)[C@H](O)[C@H]6O)[C@H](O)C[C@]5(C)[C@H]4CC[C@]3(C)[C@H]1[C@@H]2C (some centres not stated) [DIGITONIN]
Not Active: IC50 (Estrogen receptor beta) | IC50 (Interstitial collagenase) | IC50 (Cytochrome P450 1A2) | Ki (Cytochrome P450 1A2) | IC50 [1] | IC50 [2] | Ki [2] | IC50 [3] | Ki [3] | IC50 [4] | IC50 [5] | Ki [5]

C[C@H]1O[C@@H](n2cc(F)c(=O)[nH]c2=O)[C@H](O)[C@@H]1O [DOXIFLURIDINE]
Not Active: IC50 (Estrogen receptor beta) | IC50 (Interstitial collagenase) | IC50 (Cytochrome P450 1A2) | Ki (Cytochrome P450 1A2) | IC50 [1] | IC50 [2] | Ki [2] | IC50 [3] | Ki [3] | IC50 [4] | IC50 [5] | Ki [5]

Cn1c(=O)c2c(ncn2CC(O)CO)n(C)c1=O (configuration not stated) [DYPHYLLINE]
Not Active: IC50 (Estrogen receptor beta) | IC50 (Interstitial collagenase) | IC50 (Cytochrome P450 1A2) | Ki (Cytochrome P450 1A2) | IC50 [1] | IC50 [2] | Ki [2] | IC50 [3] | Ki [3] | IC50 [4] | IC50 [5] | Ki [5]

C[C@@H](CO)NC(=O)[C@@H]1C=C2c3cccc4[nH]cc(c34)C[C@H]2N(C)C1 [ERGONOVINE]
Not Active: IC50 (Estrogen receptor beta) | IC50 (Interstitial collagenase) | IC50 (Cytochrome P450 1A2) | Ki (Cytochrome P450 1A2) | IC50 [1] | IC50 [2] | Ki [2] | IC50 [3] | Ki [3] | IC50 [4] | IC50 [5] | Ki [5]

COC(=O)CCc1ccc(OCC(O)CNC(C)C)cc1 (configuration not stated) [ESMOLOL]
Not Active: IC50 (Estrogen receptor beta) | IC50 (Interstitial collagenase) | IC50 (Cytochrome P450 1A2) | Ki (Cytochrome P450 1A2) | IC50 [1] | IC50 [2] | Ki [2] | IC50 [3] | Ki [3] | IC50 [4] | IC50 [5] | Ki [5]
